{
  "source": "patent US9187490B2",
  "about": "“Dimeric IAP inhibitors” (TetraLogic Pharmaceuticals Corporation, priority 2005, dated 2015)",
  "key": {"[1]": {"assay": "Half life after single intravenous dose in rat", "settings": "in vivo, single IV dose 1 mg/kg, FIG. 2, read-out: terminal elimination half life (converted)", "protocol": "The IV dose for each Smac mimetic was 1 mg/kg."}, "[2]": {"tested_on": "T98G cells", "assay": "Cytotoxicity synergy study with topoisomerase inhibitors", "assay_type": "cell-based", "text": "The highest amount of synergy is 50-60% more cell death than would be expected by adding together the cytotoxicity of each compound alone. […] The total synergistic volume was 457, with the greatest synergism being about 30%-40% more cell death than would be expected by adding together the individual Smac and topotecan cytotoxicities, between Entry 1 and a topoismerase inhibitor, such as topotecan.\nTo further assess potential drug-drug interactions a matrix of the permutations of two-fold serial dilutions of each drug and a Snac mimetic were tested as well as the activity of each compound alone using a program called MacSynergy II (Prichard, M. N., K. R. Aseltine, and C. Shipman, Jr. 1993. MacSynergy II. User's manual. Univ. of Michigan, Ann Arbor). The synergy with paclitaxel and the Smac peptidomimetic Entry 122 in OVCAR3 cells was tested. The highest amount of synergy detected is 10-20% which indicates greater cell death than would be expected by adding together the cytotoxicity of either compound alone."}, "[3]": {"tested_on": "MDA-MB-231 cells", "assay": "Cell proliferation (MTT assay) with and without TRAIL", "assay_type": "cell-based", "settings": "MDA-MB-231, MTT, FIG. 4"}, "[4]": {"target": "T1, XIAP-BIR3 (Homo sapiens, UniProt P98170)", "T1 construct": "40 nM of XIAP-BIR3 for 15 min at RT", "T1 sequence (P98170 241-356 limits assumed)": "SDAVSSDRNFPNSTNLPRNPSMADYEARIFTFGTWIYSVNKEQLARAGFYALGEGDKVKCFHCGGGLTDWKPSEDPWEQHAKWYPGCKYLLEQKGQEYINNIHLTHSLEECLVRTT", "assay": "XIAP BIR-3 fluorescence polarization binding assay", "settings": "5 nM AbuRPF-K(5-Fam)-NH2, 40 nM XIAP-BIR3, 15 min RT, pH 7.5; read-out: KD Range", "protocol": "Following incubation, the polarization values (mP) were measured on a Victor^2V using a 485 nm excitation filter and a 520 nm emission filter. IC50 values were determined from the plot using nonlinear least-squares analysis using GraphPad Prism."}, "[5]": {"tested_on": "MDA-MB-231 cells", "assay": "Colony formation assay with and without TRAIL", "assay_type": "cell-based", "settings": "MDA-MB-231, in combination with TRAIL", "protocol": "The ability of cells to form viable colonies was analyzed by adding various concentrations of the compound in the presence and absence of 0.4 ng/ml of TRAIL. Briefly, cells are seeded at 100 cells per well in a 12 well format in 2 ml of growth medium. The medium is removed after twenty-four hours and replaced with Smac mimetics at various concentrations in growth medium with 1% DMSO. After 72 hours on test, the concentrations are removed and replaced with 2 ml. of growth medium. The plates are returned to the incubator for 7-10 days at which time the colonies have multiplied to at least 10 cells per colony which can be counted by eye. The plates are stained with a 0.01% crystal violet solution (wt:vol. in H2O) for thirty minutes. The plates are washed with tap water to remove any residual crystal violet, dried and the colonies are counted. Inhibition data were analyzed using the sigmoidal dose-response (variable slope) equation in GraphPad Prism (GraphPad Software, San Diego, Calif.). The 50% inhibitory concentration (EC50) was the drug concentration that decreased the […] by 50% relative to control samples without drug."}, "[6]": {"settings": "with topotecan and camptothecin"}},
  "data": [
    {"smiles": "CC(N)C(=O)NC(C(=O)N1CCCC1Cc1c(-c2ccc(-c3oc4ccccc4c3CC3CCCN3C(=O)C(NC(=O)C(C)N)C(C)C)cc2)oc2ccccc12)C(C)C", "note": "(single isomer, unassigned) [Entry 1]", "values": [
      {"measurement": "half-life", "setting": "[1]", "result": "~6", "unit": "h"},
      {"measurement": "total synergistic volume", "setting": "[2]; with a topoisomerase inhibitor such as topotecan", "result": 457},
      {"measurement": "greatest synergism, more cell death than expected by adding the individual cytotoxicities", "setting": "[2]; with topotecan", "result": "30%-40%"},
      {"measurement": "highest amount of synergy, more cell death than expected by adding the cytotoxicity of each compound alone", "setting": "[2]; [6]", "result": "50-60%"},
      {"measurement": "synergy with topoisomerase inhibitors", "setting": "[2]; [6]", "result": "act synergistically"},
      {"measurement": "increase in the antiproliferative effect in combination with TRAIL", "setting": "[3]; in combination with TRAIL", "result": 1000, "unit": "fold"},
      {"measurement": "antiproliferative effect, Smac mimetic alone", "setting": "[3]; without TRAIL", "result": "resistant"},
      {"measurement": "Kd", "setting": "[4]", "result": "< 100", "unit": "nM"},
      {"measurement": "increase in the cell killing as detected by loss in colony formation", "setting": "[5]", "result": 100, "unit": "fold"}
    ]}
  ]
}
